The record followed here is patent US20250213183A1, “SYSTEM AND METHOD OF MONITORING NOCICEPTION AND ANALGESIA DURING ADMINISTRATION OF GENERAL ANESTHESIA” (The General Hospital Corporation, priority 2022, published 2025).

For the assay the following is noted: single subject, forehead sensor, after propofol; FIG. 6B.

Regarding `CC(C)c1cccc(C(C)C)c1O` [propofol], the “EDA skin conductance response (SCR) after induction of general anesthesia” value is < 5 micro-Siemens.
